# From publication PMC5075052, “Modulation of the Substitution Pattern of 5-Aryl-2-Aminoimidazoles Allows Fine-Tuning of Their Antibiofilm Activity Spectrum and Toxicity” (Antimicrobial Agents and Chemotherapy, 2016)
# Read-outs that look alike come from different tables or passages of the source.
# Assays:
# S. epidermidis = assay: Monospecies bacterial biofilm inhibition, static peg assay; format: cell-based, Staphylococcus epidermidis; details: Staphylococcus epidermidis, 37°C
# Description: (§1) A static peg assay, described previously ([27], [74]), was used for bacterial biofilm formation. The Calgary biofilm device consists of a platform carrying 96 polystyrene pegs (Nunc no. 445497) that fits as a microtiter plate lid, with 1 peg hanging into each microtiter plate well (Nunc no. 269789). Twofold serial dilutions of the compounds (dissolved in 100% dimethyl sulfoxide [DMSO] or ethanol) in 100 μl liquid broth (TSB diluted 1/20) per well were prepared in the microtiter plate in duplicate or triplicate with a maximum concentration of 1,600 μM and a minimum concentration of 0.8 μM. Subsequently, an overnight culture of S. Typhimurium ATCC 14028, P. aeruginosa PA14, E. coli TG1, S. epidermidis, S. aureus SH1000, or S. aureus ATCC 6538 (all grown in LB) was diluted 1:100 into TSB diluted 1/20 (or TSB for S. epidermidis, S. aureus SH1000, and S. aureus ATCC 6538), whereas overnight cultures of S. liquefaciens MG44 and B. cepacia LMG1222T were diluted 1:50 into TSB diluted 1/20. P. gingivalis ATCC 33277 cultures were diluted in TSB diluted 1/20 to have a final concentration of 1 × 10^8 cells/ml. Next, 100 μl was added to each well of the microtiter plate, resulting in a total volume of 200 μl medium per well (final concentration range of compounds, 800 μM [2% DMSO or ethanol] to 0.4 μM [0.001% DMSO or ethanol]). In the next step, the pegged lid was placed on the microtiter plate and the plate was incubated for 24 h or 48 h at 25°C or 37°C without shaking. At 37°C, the plates were placed in a sealed container with wet towels on the bottom to prevent evaporation of the growth medium. Biofilms of P. gingivalis ATCC 33277 were grown anaerobically at 37°C for 72 h. During this incubation period, biofilms were formed on the surface of the pegs. After incubation, the optical density at 600 nm (OD600) for the planktonic cells in the microtiter plate was measured using a Synergy MX multimode reader (BioTek, Winooski, VT). This gives a first indication of the effect of the compounds on planktonic growth. For quantification of biofilm formation, the pegs were washed once in 200 μl PBS. The remaining attached bacteria were stained for 30 min with 200 μl 0.1% (wt/vol) crystal violet in an isopropanol-methanol-PBS solution (1:1:18, vol/vol). Excess stain was rinsed off by placing the pegs in a 96-well plate filled with 200 μl distilled water per well. After air drying of the pegs (30 min), the dye bound to the adherent biofilm was extracted with 30% glacial acetic acid (200 μl per well of a 96-well plate). The optical density at 570 nm (OD570) of each well was measured using a Synergy MX multimode reader (BioTek, Winooski, VT). The concentration of each compound needed to inhibit biofilm formation by 50% (BIC50) and the concentration of each compound needed to inhibit planktonic growth by 50% (IC50) were determined from the concentration gradient by using nonlinear curve fitting (GraphPad Prism software, version 5; GraphPad Software, Inc., La Jolla, CA). In the same assay, the effect on planktonic growth was evaluated. The activity was considered biofilm specific if the BIC50 was at least two times lower than the IC50. Data represent the means from at least 3 technical repeats with the corresponding 95% confidence intervals (provided in the supplemental material).
# S. liquefaciens MG44 = assay: as above; format: cell-based, Serratia liquefaciens; details: Serratia liquefaciens
# Description: as §1
# B. cepacia LMG1222T = assay: as above; format: cell-based, Burkholderia cepacia; details: Burkholderia cepacia, 25°C
# Description: as §1
# [1] = system: S. aureus ATCC 6538 + S. epidermidis; assay: Mixed-species S. aureus-S. epidermidis biofilm assay (peg, crystal violet); format: cell-based, Staphylococcus aureus + Staphylococcus epidermidis; details: 37°C
# Description: Overnight cultures of S. aureus ATCC 6538 and S. epidermidis were grown in LB medium and were diluted 1/200 in the same vial of TSB to form a mixed-culture suspension. Next, 2-fold serial dilutions of the compounds (dissolved in 100% DMSO or ethanol) in 100 μl TSB medium per well were prepared in the microtiter plate (Nunc no. 269789) in duplicate or triplicate with a maximum concentration of 1,600 μM and a minimum concentration of 0.8 μM. One hundred microliters of the mixed-culture suspension was added to each well of the microtiter plate, resulting in a total volume of 200 μl medium per well (final concentration range of compounds, 800 μM [2% DMSO or ethanol] to 0.4 μM [0.001% DMSO or ethanol]). The cells were then incubated for 48 h at 37°C, which allowed biofilm formation on the pegs (Nunc no. 269789) of the Calgary biofilm device. After 24 h, fresh medium with compounds was added to the wells, and after 48 h, the biofilm was colored with crystal violet as described above ([74]). The OD570 (biofilm) and OD600 (planktonic) were measured, and the BIC50 and the IC50, respectively, were calculated.
# [2] = system: C. albicans SC5314 + S. epidermidis; assay: Mixed C. albicans-S. epidermidis biofilm, selective plating CFU; format: cell-based, Candida albicans + Staphylococcus epidermidis; details: 37°C
# Description: Overnight cultures of C. albicans SC5314 (YPD) and S. epidermidis (TSB) were diluted in RPMI 1640 medium to OD600s of 0.05 and 0.01, respectively. Equal volumes of the cell suspensions of each organism were mixed before use. One hundred microliters of this mixed cell suspension together with compound was added to the wells of a round-bottom microtiter plate (TPP; Trasadingen, Switzerland) in triplicate. Concentrations of 25 μM (0.0625% DMSO or ethanol) and 100 μM (0.25% DMSO or ethanol) were tested. After 24 h of incubation at 37°C, the biofilms were washed with PBS and fresh medium with or without compounds was added. After a further incubation for 48 h at 37°C, the biofilms were washed with PBS, after which the cells were resuspended in 100 μl of PBS by scraping them off, sonicated (1 min, 45 kHz; USC300-T; VWR, Radnor, PA, USA), and vigorously pipetted up and down. Finally, the biofilm cells were diluted in PBS and plated on YPD agar plates containing 100 mg/liter ampicillin and TSA plates containing 25 mg/liter amphotericin B to determine the number of fungal and bacterial CFU, respectively, after 2 days of incubation at 37°C. The percentage of C. albicans SC5314 and S. epidermidis cells relative to the number of cells after DMSO or ethanol control treatment was determined.
# [3] = read-out: IC50 (planktonic growth)
# [4] = S. liquefaciens MG44, 25°C, read-out: BIC50
# [5] = S. liquefaciens MG44, 25°C, read-out: IC50 (planktonic growth)
# [6] = 48 h, mixed S. aureus ATCC 6538 + S. epidermidis biofilm, read-out: BIC50
# [7] = 48 h, mixed S. aureus ATCC 6538 + S. epidermidis, read-out: IC50 (planktonic growth)
# [8] = 25 μM compound, read-out: % CFU survival, C. albicans
# [9] = 25 μM compound, read-out: % CFU survival, S. epidermidis
# [10] = 100 μM compound, read-out: % CFU survival, C. albicans
# [11] = 100 μM compound, read-out: % CFU survival, S. epidermidis
# [12] = mixed S. aureus ATCC 6538 + S. epidermidis, read-out: IC50 (planktonic growth)
# [13] = mixed S. aureus ATCC 6538 + S. epidermidis biofilm, read-out: BIC50
SMILES,IC50 (S. epidermidis; read-out: BIC50),IC50 (S. epidermidis; [3]),IC50 (S. liquefaciens MG44; [4]),IC50 (S. liquefaciens MG44; [5]),IC50 (B. cepacia LMG1222T; read-out: BIC50),IC50 (B. cepacia LMG1222T; [3]),"IC50 [1, 6]","IC50 [1, 7]","% CFU survival, C. albicans ([2]; 25 μM compound)","% CFU survival, S. epidermidis ([2]; 25 μM compound)","activity at 25 µM [2, 8]","activity at 25 µM [2, 9]","activity at 100 µM [2, 10]","activity at 100 µM [2, 11]","IC50 (S. liquefaciens MG44; MG44, read-out: BIC50)","IC50 (S. liquefaciens MG44; MG44, read-out: IC50 (planktonic growth))","% CFU survival, S. epidermidis ([2]; 100 μM compound)","IC50 [1, 12]","IC50 [1, 13]"
CCCCCn1c(-c2ccccc2)cnc1N [Compound 1],~202 µM,~329 µM,168 µM,177 µM,~356 µM,> 400 µM,44.2 µM,~356 µM,,,,,,,,,,,
CCCCCCCCn1c(-c2ccc(Cl)cc2)cnc1N [Compound 2],,~11.1 µM,18.8 µM,38 µM,145 µM,> 400 µM,~7.2 µM,~9.9 µM,completely inhibited,completely inhibited,< 0.6%,0%,< 0.2%,0%,,,,,
CC(C)CNc1ncc(-c2ccc(Cl)cc2)[nH]1 [Compound 3],> 400 µM,86.2 µM,,,88.1 µM,> 400 µM,~26.3 µM,~140 µM,,,58.3%,64.6%,235%,13.2%,10.4 µM,154 µM,,,
CCCCNc1ncc(-c2ccc(Br)cc2)[nH]1 [Compound 4],> 400 µM,54.4 µM,4.4 µM,118 µM,189 µM,> 400 µM,6.8 µM,~118 µM,,,,,,,,,,,
Clc1ccc(-c2cnc(NC3CCCC3)[nH]2)cc1 [Compound 5],> 400 µM,39.5 µM,8.8 µM,125 µM,331 µM,> 400 µM,~66.6 µM,~91.7 µM,,,168%,72%,595%,2.3%,,,complete inhibition,,
Brc1ccc(-c2cnc(NCCn3cc(C4CC4)nn3)[nH]2)cc1 [Compound 6],> 400 µM,> 400 µM,63.3 µM,> 400 µM,> 400 µM,> 400 µM,33.9 µM,~392 µM,,,,,,,,,,,
CCCCCCCCn1c(-c2ccccc2)cnc1NCC(C)C [Compound 8a],,,,,,,,,,,62.4%,,1%,1%,,,,~26.1 µM,
CCCCCCCCn1c(-c2ccc(Cl)cc2)cnc1NCC(C)C [Compound 8b],,,,,,,,,,,2%,6.1%,18.2%,0.7%,,,,~22.2 µM,1.1 µM
CCCCCCCCn1c(-c2ccc(Br)cc2)cnc1NCC(C)C [Compound 8c],,,,,,,,,,,3.2%,637%,8.4%,966%,,,,> 400 µM,5 µM
CCCCCCCCn1c(-c2ccc(Cl)c(Cl)c2)cnc1NCC(C)C [Compound 8d],,,,,,,,,,,2.5%,,1.4%,,,,,> 400 µM,> 400 µM
CCCCCCCCn1c(-c2ccccc2)cnc1NC1CCCC1 [Compound 8e],,,,,,,,,,,10%,93.1%,2.5%,0%,,,,~23.6 µM,~3 µM
CCCCCCCCn1c(-c2ccc(Cl)cc2)cnc1NC1CCCC1 [Compound 8f],,,,,,,,,,,2.9%,2.5%,7.2%,0.3%,,,,~22.5 µM,2 µM
CCCCCCCCn1c(-c2ccc(Br)cc2)cnc1NC1CCCC1 [Compound 8g],,,,,,,,,,,3.3%,0%,5.9%,0%,,,,15.5 µM,~5.6 µM
CCCCCCCCn1c(-c2ccc(Cl)c(Cl)c2)cnc1NC1CCCC1 [Compound 8h],,,,,,,,,,,6.7%,2%,3.5%,2.2%,,,,~25.1 µM,4.9 µM
